Source: US10918713B2, “Epitopes from allergen proteins and methods and uses for immune response modulation” (LA JOLLA INSTITUTE FOR ALLERGY AND IMMUNOLOGY, priority 2012, dated 2021)
“And” between values parts separate entries of the source, which are not always exact repeats. Identical values can stand only once.

What was measured:
[1] = system: PBMC from allergic donors; assay: IL-5 ELISPOT with extract-stimulated short-term lines; assay type: cell-based, human; details: positive donor/peptide response
Experimental: (§1) Spots were counted by computer-assisted image analysis (Zeiss, KS-ELISPOT reader, Munich, Germany).
(§2) Each assay was performed in triplicate. The level of statistical significance was determined with a Student's t-test using the mean of triplicate values of the response against relevant pools or individual peptides versus the response against the DMSO control.

[2] = system: PBMC from allergic donors; assay: Dual ELISPOT, total IL-5 and IFN-γ response (SFC); assay type: cell-based, human; details: sum of IFNg and IL-5
Experimental: as §1, §2

Substance	Response (SFC/10^6) IL-5 ([1]; one donor per table line)	Response (SFC/10^6) Total ([2]; one donor per table line)	Response (SFC/10^6) IL-5 ([1]; each table line is one donor) [SFC/10^6]	Response (SFC/10^6) Total ([2]; each table line is one donor) [SFC/10^6]
3324.0348 (RAVESYLLAHSDAYN)	293 SFC/10^6	293 SFC/10^6		
3324.0349 (TSVIPAARLFKAFFL)	427 SFC/10^6	427 SFC/10^6		
3324.0350 (DHTNFKYSYSVIEGG)	413 SFC/10^6	413 SFC/10^6		
3324.0351 (YETETTSVIPAARLF)	403 SFC/10^6	403 SFC/10^6		
3324.0354 (GIKYMVIQGEAGAVI)	350 SFC/10^6	350 SFC/10^6		
3324.0355 (DGSVWAQSSSFPQFK)	1953 SFC/10^6	1953 SFC/10^6		
3324.0356 (GLHLGGIKYMVIQGE)	440 SFC/10^6	440 SFC/10^6		
3324.0364 (LSRALNLLGLETDLS)	167 SFC/10^6	167 SFC/10^6		
3324.0522 (IIFSKNLNIKLNMPL)	863 SFC/10^6	863 SFC/10^6		
3324.0525 (DKSMKVTVAFNQFGP)	323 SFC/10^6	323 SFC/10^6		
3324.0529 (MAAVAFLALQLIVMA)	283 SFC/10^6	283 SFC/10^6		
3324.0605 (HFFNHHKVMLLGHDD)	992 SFC/10^6	992 SFC/10^6		
3324.0612 (TISNNHFFNHHKVML)	542 SFC/10^6	542 SFC/10^6		
3324.0619 (GPCLFMRKVSHVILH)	687 SFC/10^6	687 SFC/10^6		
3324.0621 (MRKVSHVILHGLHIH)	642 SFC/10^6	642 SFC/10^6		
3324.0622 (DKSMKVTVAFNQFGP)	102 SFC/10^6	102 SFC/10^6		
3324.0827 (DNGYGYFAANIDLMM)	53 SFC/10^6	53 SFC/10^6		
3324.0835 (QTHSAIAVIIGIKDL)	317 SFC/10^6	317 SFC/10^6		
3324.0838 (LESVKYVQSNGGAIN)	467 SFC/10^6	467 SFC/10^6		
3324.0839 (ARKNFLESVKYVQSN)	487 SFC/10^6	487 SFC/10^6		

Substance	Response (SFC/10^6) IL-5 ([1]; one donor per table line)	Response (SFC/10^6) Total ([2]; one donor per table line)	Response (SFC/10^6) IL-5 ([1]; each table line is one donor) [SFC/10^6]	Response (SFC/10^6) Total ([2]; each table line is one donor) [SFC/10^6]
3324.0940 (QQYDIKYTWNVPKIA)	1333 SFC/10^6	1333 SFC/10^6		
3324.0960 (SELRRVDIAVVSRKE)	120 SFC/10^6	120 SFC/10^6		
3324.0964 (GGEKISVAKIFAHEK)	137 SFC/10^6	137 SFC/10^6		
3324.0966 (EYWILTAAHCVAGQT)	203 SFC/10^6	203 SFC/10^6		
3324.0967 (IDNDIALIKLKSPMK)	187 SFC/10^6	187 SFC/10^6		
3324.0968 (IRYNSLKHSLGGEKI)	137 SFC/10^6	137 SFC/10^6		
3324.0969 (TLANPILPASPNATI)	167 SFC/10^6	167 SFC/10^6		
3324.0970 (EFDAFVAYHIGARIV)	123 SFC/10^6 and 763 SFC/10^6	123 SFC/10^6 and 763 SFC/10^6		
3324.0972 (LKAATAFMLAWNYGV)	757 SFC/10^6	757 SFC/10^6		
3324.0973 (FEGRLLKAATAFMLA)	113 SFC/10^6 and 953 SFC/10^6	113 SFC/10^6 and 953 SFC/10^6		
3324.0979 (PDDLRSIYSRLHNLN)	177 SFC/10^6	177 SFC/10^6		
3324.0988 (RIYVDIVLNHMTGAQ)	117 SFC/10^6	117 SFC/10^6		
3324.0989 (SIYSRLHNLNKEFFP)	117 SFC/10^6	117 SFC/10^6		
3324.0991 (PRVMSSYFWNQIIKD)	152 SFC/10^6	152 SFC/10^6		
3324.0992 (DALVMIDSHDLRVGH)	290 SFC/10^6	290 SFC/10^6		
3324.0993 (VKFRMIAGQEPVHNW)	92 SFC/10^6	92 SFC/10^6		
3324.0997 (GELALFYLQEQINHF)	1113 SFC/10^6	1113 SFC/10^6		
3324.0998 (FDFLLMERIHEQIKK)	143 SFC/10^6	143 SFC/10^6		
3324.1001 (RKDLDIFEQYNLEMA)	117 SFC/10^6	117 SFC/10^6		
3324.1036 (TLPTILQIASVTKMS)	120 SFC/10^6	120 SFC/10^6		

Substance	Response (SFC/10^6) IL-5 ([1]; one donor per table line)	Response (SFC/10^6) Total ([2]; one donor per table line)	Response (SFC/10^6) IL-5 ([1]; each table line is one donor) [SFC/10^6]	Response (SFC/10^6) Total ([2]; each table line is one donor) [SFC/10^6]
3324.1040 (TIYSNVANLRNWIIS)	297 SFC/10^6	297 SFC/10^6		
3324.1043 (SNVANLRNWIISNTV)	177 SFC/10^6	177 SFC/10^6		
3324.1102 (DTCRARFITKLSEFI)	67 SFC/10^6	67 SFC/10^6		
3324.1105 (LSEFITGASVRLQCR)	73 SFC/10^6	73 SFC/10^6		
3324.1129 (ELADILRSLGSDVGE)	380 SFC/10^6	380 SFC/10^6		
3324.1130 (LISVEEFQTMMTSEM)	153 SFC/10^6	153 SFC/10^6		
3324.1131 (GYVSLQEFVDLNNKG)	80 SFC/10^6 and 420 SFC/10^6	80 SFC/10^6 and 420 SFC/10^6		
3324.1134 (VALFAVFLGSAHGIA)	208 SFC/10^6	208 SFC/10^6		
3324.1137 (KQQGIRYANPIAFFR)	123 SFC/10^6	123 SFC/10^6		
3324.1170 (FLAVALVAGPAASYA)			63	63
3324.1178 (EVKYTVSETALKKAV)			333	333
3324.1179 (FTVFENTFNNAIKVS)			87	87
3324.1181 (VDAAYRTAATAANAA)			383	383
3324.1183 (LKKAVTAMSEAEKEA)			128	128
3324.1186 (TNKAFVEGLASGYAD)			287	287
3324.1191 (DKFTVFESAFNKALN)			97	97
3324.1196 (AALTKAITAMTQAQK)			998	998
3324.1547 (KYMVIQGEPGAVIRG)	63 SFC/10^6	63 SFC/10^6		
